Data published in patent publication US20120088662A1, “FUNGICIDAL MIXTURES” (BASF SE, priority 2009, published 2012).
Like-named read-outs stand apart in the source and are kept apart here.

What was measured:
Botrytis cinerea [1] = assay: Use Example M2: activity against gray mold pathogen in the microtiter test (Botrci); format: cell-based; conditions: single active compound
Pyricularia oryzae = format: cell-based; conditions: alone
Septoria tritici [2] = assay: Use Example M4: activity against Septoria leaf spot pathogen in the microtiter test (Septtr); format: cell-based; conditions: alone
Pyrenophora teres = assay: Use Example M5: activity against Pyrenophora teres in the microtiter test (Pymte); format: cell-based; conditions: alone
Phytophthora infestans [3] = format: in vivo; conditions: alone, untreated control 86 % infection
Phakopsora pachyrhizi [4] = assay: Use Example G3: curative activity against soybean rust (Phakpa K4); format: in vivo; conditions: alone, untreated control 76 % infection
Protocol: (§1) The active compounds were prepared separately or jointly as a stock solution with 25 mg of active compound which was made up to 10 ml using a mixture of acetone and/or DMSO and the emulsifier Wettol EM 31 (wetting agent having emulsifying and dispersing action based on ethoxylated alkylphenols) in a volume ratio of solvent:emulsifier of 99:1. The mixture was then made up with water to 100 ml. This stock solution was diluted with the solvent/emulsifier/water mixture described to give the active compound concentration stated below. Alternatively, the active compounds were used as a commercial finished formulation and diluted with water to the stated active compound concentration.
(§2) The visually determined values for the percentage of infected leaf area were initially converted into a mean value and then converted into efficancies in % of the untreated control. An efficacy of 0 means the same degree of infection as in the untreated control, an efficacy of 100 means 0% infection.
Leaves of potted soybean seedlings were inoculated with a spore suspension of soybean rust (Phakpsora pachyrhizi). The pots were then placed in a chamber of high atmospheric humidity (90 to 95%) and 20 to 24° C. for 24 hours. During this time, the spores germinated and the germ tubes penetrated into the leaf tissue. The infected plants were then cultivated further in a greenhouse at temperatures between 23 and 27° C. and 60 to 80% relative atmospheric humidity. After three days, the plants were sprayed to runoff point with the active compound solution described above at the active compound concentration stated below. After the spray coating had dried on, the test plants were cultivated in a greenhouse at temperatures between 23 and 27° C. and 60 to 80% relative atmospheric humidity for a further 10 days. The extent of the rust fungus development on the leaves was then determined visually in % infection.

Puccinia recondita = assay: Use Example G4: protective activity against brown rust of wheat (Puccrt P1); format: in vivo; conditions: alone, untreated control 79 % infection
Protocol: as §1, §2
Leaves of potted wheat seedlings were sprayed to runoff point with an aqueous suspension having the active compound concentration stated below. The next day, the treated plants were inoculated with a spore suspension of brown rust of wheat (Puccinia recondita). The plants were then placed in a chamber of high atmospheric humidity (90 to 95%) at 20 to 24° C. for 24 hours. During this time, the spores germinated and the germ tubes penetrated into the leaf tissue. The next day, the test plants were returned to the greenhouse and cultivated at temperatures between 20 and 24° C. and 65 to 70% relative atmospheric humidity for a further 7 days. The extent of the rust fungus development on the leaves was then determined visually.

Septoria tritici [5] = assay: Use Example G5: protective activity against Septoria leaf blotch of wheat (Septtr P1); format: in vivo; conditions: alone, untreated control 83 % infection
Protocol: as §1, §2
(§3) Leaves of potted wheat seedlings were sprayed to runoff point with an aqueous suspension having the active compound concentration stated below. 24 hours after the spray coating had dried on, they were inoculated with an aqueous spore suspension of Septoria tritici. The test plants were then placed in a greenhouse at temperatures between 18 and 22° C. and a relative atmospheric humidity close to 100% for 4 days and then at temperatures between 18 and 22° C. and an atmospheric humidity of about 70%. After 21 days, the extent of the development of the disease was determined visually in % infection of the total leaf area.

Phytophthora infestans [6] = format: cell-based; conditions: single active compound
Septoria tritici [7] = assay: Comparison No. C1: activity against Septoria leaf blotch pathogen in the microtiter test (Septtr); conditions: relative growth, active compound-free control = 100%
Protocol: An aqueous malt-based spore suspension of Septoria tritici was then added. The plates were placed in a water vapor-saturated chamber at a temperature of 18° C. Using an absorption photometer, the MTPs were measured at 405 nm on day 7 after the innoculation.

Botrytis cinerea [8] = assay: Use Example G1: gray mold on bell pepper leaves, protective application (Botrci P1); format: in vivo; conditions: 1 ppm, alone; untreated control 86 % infection
Protocol: as §1, §2
Bell pepper seedlings were after 2-3 leaves were well developed, sprayed to runoff point with an aqueous suspension having the active compound concentration stated below. The next day, the treated plants were inoculated with a spore suspension of Botrytis cinerea in a 2% biomalt solution. […] After 5 days, the extent of the fungal infection on the leaves could be determined visually in %.

Septoria tritici [9] = assay: Use Example G6: protective activity against Septoria leaf blotch of wheat (Septtr P1), % infection; format: in vivo; conditions: 150 ppm, protective spray, after 21 days, untreated control 60% infected
Protocol: as §1, §3

Phakopsora pachyrhizi [10] = assay: Use Example G7: curative activity against soybean rust (Phakpa K3), % infection; format: in vivo; conditions: 150 ppm, curative spray two days after inoculation, further 10 days, untreated control 80% infected
Protocol: as §1
Leaves of potted soybean seedlings were inoculated with a spore suspension of soybean rust (Phakpsora pachyrhizi). The pots were then placed in a chamber of high atmospheric humidity (90 to 95%) and 20 to 24° C. for 24 hours. During this time, the spores germinated and the germ tubes penetrated into the leaf tissue. The infected plants were then cultivated further in a greenhouse at temperatures between 23 and 27° C. and 60 to 80% relative atmospheric humidity. […] The extent of the rust fungus development on the leaves was then determined visually in % infection.

**Q.** Which results are given for `CNC(=O)/C(=N/OC)c1ccccc1CO/N=C(C)/C(=N/OC)C(/C)=N/OC` [orysastrobin]?
**A.** Observed effect (Botrytis cinerea [1]; 0.016 ppm): 1%; Observed effect (Botrytis cinerea [1]; 1 ppm): 2%; Observed effect (Pyricularia oryzae; ternary table, 0.016 ppm): 2; Observed effect (Septoria tritici [2]; ternary table, 0.004 ppm): 2

**Q.** With `Fc1ccc([C@]2(Cn3cncn3)O[C@H]2c2ccccc2Cl)cc1` (racemic) [epoxiconazole] as the compound, how does the Observed effect (Pyricularia oryzae; ternary table, 0.016 ppm) read?
**A.** 0

**Q.** What about the Observed effect (Septoria tritici [2]; 0.004 ppm) of the same compound?
**A.** 6

**Q.** And the Observed effect (Septoria tritici [2]; 0.016 ppm)?
**A.** 22

**Q.** What about the Observed effect (Pyrenophora teres; 0.004 ppm) of the same compound?
**A.** 0%

**Q.** What about the Observed effect (Pyrenophora teres; 0.016 ppm) of the same compound?
**A.** 0%

**Q.** And the Observed effect (Phytophthora infestans [3]; 1 ppm)?
**A.** 1%

**Q.** What about the Observed effect (Phakopsora pachyrhizi [4]; 0.063 ppm) of the same compound?
**A.** 63%

**Q.** And the Observed effect (Puccinia recondita; 0.016 ppm)?
**A.** 0%

**Q.** What about the Observed effect (Septoria tritici [5]; 1 ppm) of the same compound?
**A.** 24%

**Q.** For `Fc1ccccc1[C@@]1(Cn2nc[nH]c2=S)O[C@H]1c1ccccc1Cl` (relative stereo) [I-14, 2-[trans-3-(2-chlorophenyl)-2-(2-fluorophenyl)oxiranylmethyl]-2,4-dihydro-[1,2,4]triazole-3-thione], which Observed effect (Phytophthora infestans [6]; 16 ppm) is on record?
**A.** 26%

**Q.** And the Observed effect (Pyricularia oryzae; 16 ppm)?
**A.** 18

**Q.** What about the Observed effect (Septoria tritici [2]; 1 ppm) of the same compound?
**A.** 0

**Q.** Which “Growth in % at 8 ppm for Septtr” value (Septoria tritici [7]) does the source give for `CCSc1ncnn1C[C@]1(c2ccc(F)cc2)O[C@H]1c1ccccc1Cl` (relative stereo) [I-18, trans-1-[3-(2-chlorophenyl)-2-(4-fluorophenyl)oxiranylmethyl]-5-ethylsulfanyl-1H-[1,2,4]triazole] here?
**A.** 39%

**Q.** How did the Observed effect (Botrytis cinerea [1]; 63 ppm) turn out when `Fc1ccc([C@@]2(Cn3ncnc3S)O[C@H]2c2ccccc2F)cc1` (relative stereo) [I-8, trans-2-[2-(4-fluorophenyl)-3-(2-fluorophenyl)oxiranylmethyl]-2H-[1,2,4]triazole-3-thiole] was run?
**A.** 24%

**Q.** With `[Na+].[S-]c1ncnn1C[C@]1(c2ccccc2Cl)O[C@H]1c1ccccc1Cl` (relative stereo) [I-10, sodium 2-[trans-2,3-bis-(2-chlorophenyl)oxiranylmethyl]-2H-[1,2,4]triazole-3-thiolate] as the compound, how does the Observed effect (Phytophthora infestans [6]; 16 ppm) read?
**A.** 30%

**Q.** And the Observed effect (Pyricularia oryzae; 16 ppm)?
**A.** 35

**Q.** With `O=C(Nc1ccccc1-c1ccc(Cl)cc1)c1cccnc1Cl` [boscalid] as the compound, how does the Observed effect (Phytophthora infestans [6]; 4 ppm) read?
**A.** 4%

**Q.** What about the Observed effect (Phytophthora infestans [6]; 16 ppm) of the same compound?
**A.** 20%

**Q.** What about the Observed effect (Pyricularia oryzae; 16 ppm) of the same compound?
**A.** 8

**Q.** What about the Observed effect (Pyricularia oryzae; ternary table, 4 ppm) of the same compound?
**A.** 0

**Q.** And the Observed effect (Septoria tritici [2]; ternary table, 0.063 ppm)?
**A.** 10

**Q.** What about the Observed effect (Puccinia recondita; 0.063 ppm) of the same compound?
**A.** 0%

**Q.** What about the Observed effect (Septoria tritici [5]; 4 ppm) of the same compound?
**A.** 10%

**Q.** For `COC(=O)N(OC)c1ccccc1COc1ccn(-c2ccc(Cl)cc2)n1` [pyraclostrobin], which Observed effect (Phytophthora infestans [6]; 16 ppm) is on record?
**A.** 16%

**Q.** And the Observed effect (Botrytis cinerea [8])?
**A.** 1%

**Q.** For `CSc1ncnn1CC1(c2ccc(F)cc2)OC1c1ccccc1Cl` (stereo not shown) [Prior art (WO 96/38440)], which “Growth in % at 8 ppm for Septtr” value (Septoria tritici [7]) is on record?
**A.** 65%

**Q.** Which Observed effect (Phytophthora infestans [3]; 63 ppm) does the source give for `COC(=O)NC(=S)Nc1ccccc1NC(=S)NC(=O)OC` [thiophanate-methyl] here?
**A.** 0%

**Q.** What about the Observed effect (Phakopsora pachyrhizi [4]; 4 ppm) of the same compound?
**A.** 8%

**Q.** With `CNC(=O)/C(=N/OC)c1ccccc1COc1cc(C)ccc1C` [dimoxystrobin] as the compound, how does the Observed effect (Pyrenophora teres; 0.004 ppm) read?
**A.** 4%

**Q.** What does the source list for `S=c1[nH]cnn1C[C@]1(c2ccccc2)O[C@H]1c1ccccc1Cl` (relative stereo) [I-12, 2-[trans-3-(2-chlorophenyl)-2-phenyloxiranylmethyl]-2,4-dihydro-[1,2,4]triazole-3-thione]?
**A.** Observed effect (Pyricularia oryzae; 16 ppm): 7; Observed effect (Pyricularia oryzae; 63 ppm): 16

**Q.** Which “infection (% infection of the total leaf area)” value (Septoria tritici [9]) does the source give for `N#CSc1ncnn1C[C@]1(c2ccc(F)cc2)O[C@H]1c1ccccc1Cl` (relative stereo) [I-6, trans-1-[3-(2-chlorophenyl)-2-(4-fluorophenyl)oxiranylmethyl]-5-thiocyanato-1H-[1,2,4]triazole] here?
**A.** 0%

**Q.** And the “infection (rust fungus development on the leaves, % infection)” value (Phakopsora pachyrhizi [10])?
**A.** 0%

**Q.** `COC(=O)Nc1nc2ccccc2[nH]1` [carbendazim] was tested. Which Observed effect (Pyrenophora teres; 0.004 ppm) did it give?
**A.** 0%

**Q.** How did the Observed effect (Pyricularia oryzae; 4 ppm) turn out when `Cc1cc(C)nc(Nc2ccccc2)n1` [pyrimethanil] was run?
**A.** 47

**Q.** For `CO/N=C(/C(=O)OC)c1ccccc1COc1ccccc1C` [kresoxim-methyl], which Observed effect (Phakopsora pachyrhizi [4]; 1 ppm) is on record?
**A.** 39%

**Q.** `CC(=O)Sc1ncnn1C[C@]1(c2ccc(F)cc2)O[C@H]1c1ccccc1Cl` (relative stereo) [I-3, trans-S-{2-[3-(2-chlorophenyl)-2-(4-fluorophenyl)oxiranylmethyl]-2H-[1,2,4]triazol-3-yl}thioacetate] was tested. Which Observed effect (Phytophthora infestans [6]; 63 ppm) did it give?
**A.** 43%

**Q.** And the Observed effect (Botrytis cinerea [1]; 16 ppm)?
**A.** 15%

**Q.** And the Observed effect (Pyricularia oryzae; 16 ppm)?
**A.** 8

**Q.** What about the Observed effect (Pyricularia oryzae; 63 ppm) of the same compound?
**A.** 62

**Q.** What about the Observed effect (Septoria tritici [2]; 1 ppm) of the same compound?
**A.** 3

**Q.** With `N#Cc1c(Cl)c(Cl)c(Cl)c(C#N)c1Cl` [chlorothalonil] as the compound, how does the Observed effect (Pyricularia oryzae; ternary table, 0.063 ppm) read?
**A.** 4

**Q.** What about the Observed effect (Septoria tritici [2]; 0.063 ppm) of the same compound?
**A.** 3

**Q.** What about the Observed effect (Septoria tritici [2]; ternary table, 0.063 ppm) of the same compound?
**A.** 3

**Q.** With `Fc1ccc([C@@]2(Cn3nc[nH]c3=S)O[C@H]2c2ccccc2Cl)cc1` (relative stereo) [I-1, trans-2-[3-(2-chlorophenyl)-2-(4-fluorophenyl)oxiranylmethyl]-2,4-dihydro-[1,2,4]triazole-3-thione] as the compound, how does the Observed effect (Pyricularia oryzae; 16 ppm) read?
**A.** 3

**Q.** And the Observed effect (Pyrenophora teres; 0.004 ppm)?
**A.** 2%

**Q.** And the Observed effect (Pyrenophora teres; 0.016 ppm)?
**A.** 5%

**Q.** And the Observed effect (Phytophthora infestans [3]; 1 ppm)?
**A.** 0%

**Q.** And the Observed effect (Phakopsora pachyrhizi [4]; 0.063 ppm)?
**A.** 17%

**Q.** What about the Observed effect (Puccinia recondita; 0.016 ppm) of the same compound?
**A.** 0%

**Q.** What about the Observed effect (Septoria tritici [5]; 1 ppm) of the same compound?
**A.** 8%
